BindingDB's records for doi:10.1021/jm00004a013 (Solvay Pharma, 1995)
pIC50: −log10 of the molar value.

Molecular target: Polyunsaturated fatty acid 5-lipoxygenase (Cavia porcellus)
Test: Inhibitory activity against partially-purified Guinea pig PMN 5-lipoxygenase

How did the pIC50 turn out when Cc1ccnc(N2CCN(CCc3c(C)n4c5c(cc(O)cc35)CCC4)CC2)c1 [2-Methyl-1-{2-[4-(4-methyl-pyridin-2-yl)-piperazin-1-yl]-ethyl}-5,6-dihydro-4H-pyrrolo[3,2,1-ij]quinolin-8-ol] was run?
Its pIC50 is 5.55.
